Data reported in patent US10918891B2, “Cosmetic treatment method for the skin” (SYNTIVIA, priority 2016, dated 2021).

Legend:
[1] = test system: NativeSkin® skin explants (Genoskin); experiment: Histological analysis (haematoxylin/eosin) of NativeSkin skin explant ex vivo after UVA irradiation; assay type: cell-based, human; settings: composition 0.9 mmol/L topical, 60 J/cm^2 UVA every day for 3 days, FIG. 5
Protocol: The test was carried out on NativeSkin® skin explants (Genoskin), a biopsy of skin bathed in a solid, nourishing matrix while its epidermal surface is preserved in contact with the air. The biopsy is firmly anchored in the matrix and sealed in order to prevent any lateral diffusion of formulation intended for topical application.
The study was carried out on a donor (phototype 2) under the following conditions.
The compounds tested are implemented in a composition containing them at 0.9 mmol/L in a mixture of Carbopol® (0.5% p/p), DMSO (0.1% p/p) and H2O (qsp 100%).
The samples are irradiated at 60 J/cm^2 UVA every day for 3 days. A treatment is carried out for 24 h before the irradiation, by application of the composition tested onto the sample (deposition of 40 μl of composition onto the stratum corneum), then a post-treatment of 24 h after the irradiation, in the same manner.
A Control of the sample of skin non-irradiated and a Control of the sample of skin irradiated are also carried out, both with application of the vehicle alone (0.5% Carbopol®, 0.1% DMSO, H2O). The Control of the non-irradiated sample of skin is introduced into the irradiator in a sheet of aluminium, in such a way as to protect it against UVs.
The samples are sampled, cut (according to the conventional method of cryo-sectioning implementing paraffin and freezing) and fixed in 1 ml of formalin for 24 h.
The explants are then included in paraffin and sections of 5 μm are made.
The slides are then coloured with haematoxylin (basic compound marking the nuclei) and eosin (acidic compound marking the conjunctive tissue).
The analysis of the marking is carried out with a DM5000B fluorescence microscope (Leica Microsystems) and 10 images are acquired for each sample.

MMP-9 = experiment: Gene expression of MMP-9 by quantitative RT-PCR in NHEK; assay type: cell-based, human; settings: (Ia) 3 ppm (10^−5M), 24 hours
Protocol: In these examples, the expression of the messenger RNA is measured by the technique of quantitative RT-PCR (reverse transcription followed by polymerase chain reaction), after incubation in vitro of the various cell types in the absence or in the presence of compound (Ia).
This study was carried out on normal human dermal Fibroblasts (NHDF) or normal human epidermal Keratinocytes (NHEK). The compound (Ia) is tested at 10^−5M in an aqueous solution with 0.1% dimethylsulfoxide.
The cells are cultured at the concentration of 10,000 cells per well of 96-well plates, in the presence of standard culture medium according to the cell type.
The compound (Ia) is then added at the concentration (3 ppm), for 24 hours.
The supernatant is eliminated and the cells are taken up in a specific buffer for the extraction of the messenger RNA (mRNA). The mRNA is purified and reverse transcribed in the presence of a commercial reverse transcriptase.
The complementary DNA (cDNA) obtained is quantified by RT-PCR, by means of suitable primers. The rate of expression of the mRNA is normalised with 5 reference genes.
The cells used for this example are normal human keratinocytes (NHEK).

ELN (Elastin) = experiment: Elastin immunofluorescence on human skin explants after repeated UVA irradiation; assay type: cell-based; settings: skin explant, (Ia) 100 ppm
Protocol: In these examples, the protective properties of the compound (Ia) against the damage caused to the DNA and to the extracellular matrix by repeated UVA irradiation, are measured on explants of human skin (NATIVESKIN, Genoskin).
Upon reception of the explants, the latter are topically coated with Carbopol® (Lubrizol)+DMSO for the non-UVA control (CTL without stress) and for the control with stress by UVAs (CTL UVA), and with Carbopol®+compound (Ia) at 100 ppm for the test.
Over three days, the cells are subjected to three stresses with UVAs at a rate of 50 joules per square centimetre.
The first irradiation takes place 24 hours after the treatments. The products are present before, during and after the irradiation. The control without stress is wrapped in aluminium and also placed in the irradiator.
During the irradiation, the explants inserted are disposed in a petri dish with PBS. Fresh medium (Genoskin Culture medium) is added after the irradiation.
After the third day of irradiation, the explants are cultivated for 24 hours, then collected and fixed for 48 hours in formalin (Sigma). The samples are included in paraffin and cut.
Marking of the protein elastin is carried out by immunofluorescence on a paraffin section.
The samples are prepared for the fluorescent marking. […]
The sections are mounted on a slide and the fluorescence is quantified using a microscope (Leica DM5000B).

[2] = test system: normal human Keratinocytes (NHEK); experiment: Reactive oxygen species (H2DCFDA probe) in NHEK after single UVA stress; assay type: cell-based
Protocol: The cells used for this example are normal human Keratinocytes (NHEK).
The antioxidant properties (neutralising the production of reactive oxygen species) of the compound (Ia) are evaluated after a single stress with UVAs on NHEKs, by a test based on the use of the fluorescent probe H2DCFDA on a triple culture.
H2DCFDA (2′-7′dichlorodihydrofluorescein diacetate, Fischer Scientific) is a probe that, after having diffused into the cell and after its acetate group has been split by intracellular esterases, can be oxidised by free radicals (H2O2) into DCF (2′-7′ dichlorofluorescein), a fluorescent compound. The production of the free radicals can thus be quantified by the level of fluorescence emitted by the oxidised probe. The more the cell produces free radicals, the higher the level of fluorescence detected.
After 24 hours of incubation with the compound (Ia) (3 ppm in an aqueous solution with 0.1% dimethylsulfoxide) or the reference elements, the cells are placed in the presence of the H2DCFDA probe at 3 ppm for 1 hour at 37° C., 5% CO2 in order to allow its intracellular diffusion.
The reference antioxidant elements are: Trolox ([…], Sigma), at 20 ppm and Quercetin (quercetin dihydrate, Sigma), at 18 ppm.
After one rinsing, the cells are subjected to a single stress with UVAs (in the absence of compound (Ia)) at a rate of 10 joules per square centimetre. The quantification of the fluorescence emitted (excitation: 485 nm; emission: 520 nm) is carried out immediately after the end of the UVA stress. […]
In order to provide a result representative of the cellular population of each condition after a single stress with UVAs, a cellular viability test (MTS) is carried out immediately after the quantification of the fluorescence emitted. The fluorescence values are thus normalised with respect to the cellular viabilities in order for it to be possible to compare the levels of fluorescence of the various conditions to each other.

**Q.** With `Cc1ncc(CO)c(CNC(=O)/C=C/c2ccc(O)c(O)c2)c1O` [Compound (Ia)] as the compound, how does the “Morphology of the epidermis after UVA irradiation (histological analysis)” value [1] read?
**A.** totally protected

**Q.** And the “Reduction of the gene expression compared to the basal level based on 100% (MMP-9)” value (MMP-9)?
**A.** −75%

**Q.** And the “Average fluorescence intensity of the marking ELN (AU)” value (ELN (Elastin); CTL UVA 145.9, CTL without stress 160.4)?
**A.** 182.4 AU

**Q.** What about the “Cells positive for ELN based on 100%” value (ELN (Elastin); relative to CTL without stress, CTL UVA −9%) of the same compound?
**A.** +14%

**Q.** What about the “Assay of the fluorescence with H2DCFDA after irradiation of NHEKs with UVAs” value ([2]; 24 h incubation, (Ia) 3 ppm, Trolox 20 ppm, Quercetin 18 ppm, UVA 10 J/cm2, normalised to viability (MTS), CTL UVA 289687.6, CTL without stress 16441.9) of the same compound?
**A.** 198588.8

**Q.** And the “reduction of the generation of intracellular H2O2 after UVA stress” value ([2]; NHEK, compound 3 ppm, single UVA stress, FIG. 1)?
**A.** 40%
